Measured values reported in patent US10780090B2, “Heteroaryl compounds useful as inhibitors of SUMO activating enzyme” (Millennium Pharmaceuticals, Inc., priority 2014, dated 2020).
pIC50: −log10 of the molar value.

Target: recombinant human SAE enzyme (Homo sapiens (Human), UniProt Q9UBT2)
Assay: SAE HTRF enzyme assay
Format: biochemical
Conditions: for IC50: SAE inhibition, class symbols, legend in nM; for inhibition at 0.111 µM: read-out: Percent Inhibition; for pIC50: class symbols A/B/C
Method in brief: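 Human SAE (0.11 nM) with 0.5 μM ATP, 0.125 μM Sumo-Flag and 0.01 μM Ubc9-GST in HEPES pH 7.5, 5 mM MgCl2, 250 μM GSH; 105 min at 24 °C. Stopped with EDTA; HTRF read after 2 h with Eu-anti-Flag and APC-anti-GST. Percent inhibition or IC50 reported.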

[1] = SAE inhibition at compound concentration 0.111 μM

Sequence of recombinant human SAE enzyme (Q9UBT2 whole entry): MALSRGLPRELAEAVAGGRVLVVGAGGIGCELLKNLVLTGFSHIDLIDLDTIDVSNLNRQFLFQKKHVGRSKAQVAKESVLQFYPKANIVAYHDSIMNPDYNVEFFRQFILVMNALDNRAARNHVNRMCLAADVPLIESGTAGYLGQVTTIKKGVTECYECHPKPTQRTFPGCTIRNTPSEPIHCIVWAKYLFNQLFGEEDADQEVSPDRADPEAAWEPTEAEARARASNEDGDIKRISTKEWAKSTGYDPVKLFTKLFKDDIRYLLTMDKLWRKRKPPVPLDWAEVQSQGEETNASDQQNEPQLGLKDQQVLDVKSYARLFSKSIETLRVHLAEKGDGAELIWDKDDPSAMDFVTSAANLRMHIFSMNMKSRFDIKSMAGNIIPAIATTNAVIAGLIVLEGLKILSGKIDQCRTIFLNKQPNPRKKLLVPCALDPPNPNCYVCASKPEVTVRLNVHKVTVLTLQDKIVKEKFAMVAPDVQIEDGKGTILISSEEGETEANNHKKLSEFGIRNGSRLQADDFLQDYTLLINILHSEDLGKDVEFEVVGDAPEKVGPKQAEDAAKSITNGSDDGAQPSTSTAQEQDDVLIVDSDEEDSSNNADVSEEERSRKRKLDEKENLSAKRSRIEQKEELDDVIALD
Sequence of recombinant human SAE enzyme (Q9UBE0 whole entry partner): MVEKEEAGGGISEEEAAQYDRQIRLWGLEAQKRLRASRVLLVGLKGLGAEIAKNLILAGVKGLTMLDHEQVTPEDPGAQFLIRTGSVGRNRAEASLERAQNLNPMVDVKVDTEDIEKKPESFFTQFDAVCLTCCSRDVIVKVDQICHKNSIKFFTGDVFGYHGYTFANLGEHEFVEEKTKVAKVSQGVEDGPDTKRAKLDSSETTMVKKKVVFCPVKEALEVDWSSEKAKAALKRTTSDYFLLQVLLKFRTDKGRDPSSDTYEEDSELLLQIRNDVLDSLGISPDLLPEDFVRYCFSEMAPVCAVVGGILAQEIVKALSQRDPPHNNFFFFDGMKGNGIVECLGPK

## Cc1sc(C(=O)c2cncnc2N[C@@H]2C[C@H](COS(N)(=O)=O)[C@@H](O)C2)cc1[C@@H]1OCCc2cccnc21 (mixture of isomers) [I-285, [(1R,2S,4R)-4-{[5-({4-[(8S)-5,8-dihydro-6H-pyrano[3,4-b]pyridin-8-yl]-5-methyl-2-thienyl}carbonyl)pyrimidin-4-yl]amino}-2-hydroxycyclopentyl]methyl sulfamate and [(1R,2S,4R)-4-{[5-({4-[(8R)-5,8-dihydro-6H-pyrano[3,4-b]pyridin-8-yl]-5-methyl-2-thienyl}carbonyl)pyrimidin-4-yl]amino}-2-hydroxycyclopentyl]methyl sulfamate]
[1]
  Percent Inhibition: 100%
  IC50: < 10 nM

## NS(=O)(=O)OC[C@H]1C[C@@H](Nc2ncncc2C(=O)c2cc(Cc3ccc(Cl)cc3)cs2)C[C@@H]1O [I-157, {(1R,2S,4R)-4-[(5-{[4-(4-chlorobenzyl)-2-thienyl]carbonyl}pyrimidin-4-yl)amino]-2-hydroxycyclopentyl}methyl sulfamate]
Concentration 0.111 μM
  inhibition at 0.111 µM: 92%

## Cc1sc(C(=O)c2cncnc2N[C@@H]2C[C@H](COS(N)(=O)=O)[C@@H](O)C2)cc1[C@@H]1OCCc2ccc(C(F)(F)F)cc21 (single isomer, unassigned) [I-258b, [(1R,2S,4R)-2-hydroxy-4-{[5-({5-methyl-4-[(1R)-7-(trifluoromethyl)-3,4-dihydro-1H-isochromen-1-yl]-2-thienyl}carbonyl)pyrimidin-4-yl]amino}cyclopentyl]methyl sulfamate or [(1R,2S,4R)-2-hydroxy-4-{[5-({5-methyl-4-[(1S)-7-(trifluoromethyl)-3,4-dihydro-1H-isochromen-1-yl]-2-thienyl}carbonyl)pyrimidin-4-yl]amino}cyclopentyl]methyl sulfamate]
Concentration 0.111 μM
  Percent Inhibition: 72
  pIC50: 7.00 to 8.00

## NS(=O)(=O)OCC1CC(Nc2ncncc2C(=O)c2cc(C3OCCc4ccc(Cl)cc43)c(Cl)s2)CC1O (mixture of isomers) [I-282, [(1R,2S,4R)-4-{[5-({5-chloro-4-[(1R)-7-chloro-3,4-dihydro-1H-isochromen-1-yl]-2-thienyl}carbonyl)pyrimidin-4-yl]amino}-2-hydroxycyclopentyl]methyl sulfamate and [(1R,2S,4R)-4-{[5-({5-chloro-4-[(1S)-7-chloro-3,4-dihydro-1H-isochromen-1-yl]-2-thienyl}carbonyl)pyrimidin-4-yl]amino}-2-hydroxycyclopentyl]methyl sulfamate]
[1]
  Percent Inhibition: 100%
  IC50: < 10 nM

## C[C@@H]1CCCN(Cc2csc(C(=O)c3cncnc3N[C@@H]3C[C@H](COS(N)(=O)=O)[C@@H](O)C3)c2)C1 (mixture of isomers) [I-225, [(1R,2S,4R)-2-hydroxy-4-({5-[(4-{[(3R)-3-methylpiperidin-1-yl]methyl}-2-thienyl)carbonyl]pyrimidin-4-yl}amino)cyclopentyl]methyl sulfamate and [(1R,2S,4R)-2-hydroxy-4-({5-[(4-{[(3S)-3-methylpiperidin-1-yl]methyl}-2-thienyl)carbonyl]pyrimidin-4-yl}amino)cyclopentyl]methyl sulfamate]
Concentration 0.111 μM
  Percent Inhibition: 33
  pIC50: 6.00 to 7.00

## NS(=O)(=O)OC[C@H]1C[C@@H](Nc2ncncc2C(=O)c2cc(CSc3ccccc3Cl)cs2)C[C@@H]1O [I-147, [(1R,2S,4R)-4-({5-[(4-{[(2-chlorophenyl)sulfanyl]methyl}-2-thienyl)carbonyl]pyrimidin-4-yl}amino)-2-hydroxycyclopentyl]methyl sulfamate]
Concentration 0.111 μM
  inhibition at 0.111 µM: 94%
  pIC50: > 8.00

## NS(=O)(=O)OC[C@H]1C[C@@H](Nc2ncncc2C(=O)c2cc([C@@H]3OCCc4cnc(Cl)cc43)c(Cl)s2)C[C@@H]1O (mixture of isomers) [I-323, [(1R,2S,4R)-4-{[5-({5-chloro-4-[(1R)-7-chloro-3,4-dihydro-1H-pyrano[4,3-c]pyridin-1-yl]-2-thienyl}carbonyl)pyrimidin-4-yl]amino}-2-hydroxycyclopentyl]methyl sulfamate and [(1R,2S,4R)-4-{[5-({5-chloro-4-[(1S)-7-chloro-3,4-dihydro-1H-pyrano[4,3-c]pyridin-1-yl]-2-thienyl}carbonyl)pyrimidin-4-yl]amino}-2-hydroxycyclopentyl]methyl sulfamate]
[1]
  Percent Inhibition: 90%
  IC50: 10 to 100 nM

## NS(=O)(=O)OC[C@H]1C[C@@H](Nc2ncncc2C(=O)c2cc(Cc3cccc(Br)n3)c(Cl)s2)C[C@@H]1O [I-46, [(1R,2S,4R)-4-{[5-({4-[(6-bromopyridin-2-yl)methyl]-5-chloro-2-thienyl}carbonyl)pyrimidin-4-yl]amino}-2-hydroxycyclopentyl]methyl sulfamate]
Concentration 0.111 μM
  inhibition at 0.111 µM: 98%

## N[C@H](c1cccc(Cl)c1)c1cc(C(=O)c2cncnc2N[C@@H]2C[C@H](COS(N)(=O)=O)[C@@H](O)C2)sc1Cl (single isomer, unassigned) [I-15a, [(1R,2S,4R)-4-{[5-({4-[(R)-amino(3-chlorophenyl)methyl]-5-chloro-2-thienyl}carbonyl)pyrimidin-4-yl]amino}-2-hydroxycyclopentyl]methyl sulfamate or [(1R,2S,4R)-4-{[5-({4-[(S)-amino(3-chlorophenyl)methyl]-5-chloro-2-thienyl}carbonyl)pyrimidin-4-yl]amino}-2-hydroxycyclopentyl]methyl sulfamate]
Concentration 0.111 μM
  Percent Inhibition: 66
  pIC50: 7.00 to 8.00

## CN1Cc2ccc(Cl)cc2[C@@H]1c1cc(C(=O)c2cncnc2N[C@@H]2C[C@H](COS(N)(=O)=O)[C@@H](O)C2)sc1Cl (single isomer, unassigned) [I-284a, [(1R,2S,4R)-4-{[5-({5-chloro-4-[(1R)-6-chloro-2-methyl-2,3-dihydro-1H-isoindol-1-yl]-2-thienyl}carbonyl)pyrimidin-4-yl]amino}-2-hydroxycyclopentyl]methyl sulfamate or [(1R,2S,4R)-4-{[5-({5-chloro-4-[(1S)-6-chloro-2-methyl-2,3-dihydro-1H-isoindol-1-yl]-2-thienyl}carbonyl)pyrimidin-4-yl]amino}-2-hydroxycyclopentyl]methyl sulfamate]
[1]
  Percent Inhibition: 49%
  IC50: 100 to 1000 nM

## NS(=O)(=O)OC[C@H]1C[C@@H](Nc2ncncc2C(=O)c2cc(Sc3cccc(C(F)(F)F)c3)c(Cl)s2)C[C@@H]1O [I-189, [(1R,2S,4R)-4-({5-[(5-chloro-4-{[3-(trifluoromethyl)phenyl]sulfanyl}-2-thienyl)carbonyl]pyrimidin-4-yl}amino)-2-hydroxycyclopentyl]methyl sulfamate]
Concentration 0.111 μM
  inhibition at 0.111 µM: 78%
  pIC50: 7.00 to 8.00

## C#Cc1ccc2c(c1)[C@H](c1cc(C(=O)c3cncnc3N[C@@H]3C[C@H](COS(N)(=O)=O)[C@@H](O)C3)sc1C)OCC2 (single isomer, unassigned) [I-252a, [(1R,2S,4R)-4-{[5-({4-[(1R)-7-ethynyl-3,4-dihydro-1H-isochromen-1-yl]-5-methyl-2-thienyl}carbonyl)pyrimidin-4-yl]amino}-2-hydroxycyclopentyl]methyl sulfamate or [(1R,2S,4R)-4-{[5-({4-[(1S)-7-ethynyl-3,4-dihydro-1H-isochromen-1-yl]-5-methyl-2-thienyl}carbonyl)pyrimidin-4-yl]amino}-2-hydroxycyclopentyl]methyl sulfamate]
Concentration 0.111 μM
  Percent Inhibition: 71
  pIC50: 7.00 to 8.00

## NS(=O)(=O)OC[C@H]1C[C@@H](Nc2ncncc2C(=O)c2cc([C@@H]3OC(=O)c4ccc(Cl)cc43)c(Cl)s2)C[C@@H]1O (mixture of isomers) [I-327, [(1R,2S,4R)-4-{[5-({5-chloro-4-[(1R)-6-chloro-3-oxo-1,3-dihydro-2-benzofuran-1-yl]-2-thienyl}carbonyl)pyrimidin-4-yl]amino}-2-hydroxycyclopentyl]methyl sulfamate and [(1R,2S,4R)-4-{[5-({5-chloro-4-[(1S)-6-chloro-3-oxo-1,3-dihydro-2-benzofuran-1-yl]-2-thienyl}carbonyl)pyrimidin-4-yl]amino}-2-hydroxycyclopentyl]methyl sulfamate]
[1]
  Percent Inhibition: 51%
  IC50: 100 to 1000 nM

## N[C@H](c1cccc(Br)c1)c1cc(C(=O)c2cncnc2N[C@@H]2C[C@H](COS(N)(=O)=O)[C@@H](O)C2)sc1Cl (single isomer, unassigned) [I-22b, [(1R,2S,4R)-4-{[5-({4-[(R)-amino(3-bromophenyl)methyl]-5-chloro-2-thienyl}carbonyl)pyrimidin-4-yl]amino}-2-hydroxycyclopentyl]methyl sulfamate or [(1R,2S,4R)-4-{[5-({4-[(S)-amino(3-bromophenyl)methyl]-5-chloro-2-thienyl}carbonyl)pyrimidin-4-yl]amino}-2-hydroxycyclopentyl]methyl sulfamate]
Concentration 0.111 μM
  Percent Inhibition: 99
  pIC50: > 8.00

## Cc1sc(C(=O)c2cncnc2N[C@@H]2C[C@H](COS(N)(=O)=O)[C@@H](O)C2)cc1[C@H](C)c1cccc(Cl)c1 (single isomer, unassigned) [I-135b, [(1R,2S,4R)-4-{[5-({4-[(1R)-1-(3-chlorophenyl)ethyl]-5-methyl-2-thienyl}carbonyl)pyrimidin-4-yl]amino}-2-hydroxycyclopentyl]methyl sulfamate or [(1R,2S,4R)-4-{[5-({4-[(1S)-1-(3-chlorophenyl)ethyl]-5-methyl-2-thienyl}carbonyl)pyrimidin-4-yl]amino}-2-hydroxycyclopentyl]methyl sulfamate]
Concentration 0.111 μM
  Percent Inhibition: 95
  pIC50: > 8.00
